Laboratory results published in patent US20240208895A1, “BRANCHED-CHAIN AMINO ACID DERIVATIVES TO TREAT DISEASE” (INTRABIO LTD., priority 2021, published 2024).

How the values were obtained:
[1] = target: T1, monocarboxylate transporter (MCT1) (Homo sapiens, UniProt P53985); assay: Inhibition of MCT1 uptake of known substrate 2-thiophene glyoxylate; assay type: cell-based; parameters: expressed in transfected cells
T1 sequence (P53985 1-500): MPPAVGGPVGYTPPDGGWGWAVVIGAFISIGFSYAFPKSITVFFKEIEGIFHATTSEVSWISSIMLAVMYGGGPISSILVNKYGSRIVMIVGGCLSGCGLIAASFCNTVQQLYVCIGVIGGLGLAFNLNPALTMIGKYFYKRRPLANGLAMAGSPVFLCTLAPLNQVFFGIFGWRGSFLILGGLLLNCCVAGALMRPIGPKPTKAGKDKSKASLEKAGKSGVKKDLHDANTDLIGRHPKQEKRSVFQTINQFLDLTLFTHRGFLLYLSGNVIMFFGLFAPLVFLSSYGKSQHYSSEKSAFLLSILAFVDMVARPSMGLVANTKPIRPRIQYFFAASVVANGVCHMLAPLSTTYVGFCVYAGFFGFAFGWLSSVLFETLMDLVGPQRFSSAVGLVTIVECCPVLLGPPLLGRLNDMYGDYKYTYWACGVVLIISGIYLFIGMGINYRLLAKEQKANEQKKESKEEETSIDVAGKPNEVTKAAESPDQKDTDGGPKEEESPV
Description: FIG. 4(c) is a line graph showing concentration-inhibition curves for the inhibition of uptake of the known substrate 2-thiophene glyoxylate (500 μM) for MCT1. DMSO (0.5%) was the solvent control (SC) and the known inhibitor phloretin (500 μM) was the positive control (PC).
FIG. 4(d) is a line graph showing concentration-inhibition curves for the inhibition of uptake of the known substrate 2-thiophene glyoxylate (500 μM) for MCT1. DMSO (0.5%) was the solvent control (SC) and the known inhibitor phloretin (500 μM) was the positive control (PC).
(§1) The known probe substrates used as positive controls are 3 μM chlorothiazide for OAT1, 2 μM estrone-3-sulfate for OAT3, 10 μM gabapentin for LAT1, 50 μM Gly-Sar for PepT1, 500 μM thiophene-2-glyoxylic acid for MCT1.
The IC50 value for the test item is determined by fitting the Hill equation in the following form:
where A % is the percent activity remaining (the mean cellular uptake observed in the solvent control sample set to 100% and the mean cellular uptake observed in the presence of the positive control inhibitor set to 0%), Top and Bottom are the upper and lower plateau of A %. [I] is the inhibitor concentration and IC50 is the inhibitor concentration where the remaining activity is at the midpoint between the Top and Bottom.

OAT1 (SLC22A6) = target: T2, OAT1 (SLC22A6) (Homo sapiens, UniProt Q4U2R8); assay: OAT1 transporter-mediated cellular uptake (substrate test); assay type: cell-based; conditions: uptake 5 min, 37° C.
T2 construct: host or cells: HEK-293
T2 sequence (Q4U2R8 1-563): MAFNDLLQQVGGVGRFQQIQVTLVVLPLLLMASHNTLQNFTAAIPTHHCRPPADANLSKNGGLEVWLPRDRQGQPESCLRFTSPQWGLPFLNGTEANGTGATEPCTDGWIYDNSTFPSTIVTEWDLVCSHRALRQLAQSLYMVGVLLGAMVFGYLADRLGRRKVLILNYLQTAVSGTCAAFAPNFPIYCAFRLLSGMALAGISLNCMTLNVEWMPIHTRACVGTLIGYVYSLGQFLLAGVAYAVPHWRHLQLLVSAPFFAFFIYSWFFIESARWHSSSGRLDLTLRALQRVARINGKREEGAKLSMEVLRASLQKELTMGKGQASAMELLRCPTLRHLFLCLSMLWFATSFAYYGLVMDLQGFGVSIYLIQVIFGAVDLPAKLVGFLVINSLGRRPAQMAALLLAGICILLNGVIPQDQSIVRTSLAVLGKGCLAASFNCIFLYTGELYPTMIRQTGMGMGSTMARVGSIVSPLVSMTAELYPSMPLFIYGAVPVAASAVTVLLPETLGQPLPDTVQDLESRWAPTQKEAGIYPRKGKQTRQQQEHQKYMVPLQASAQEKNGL
Description: (§2) DMSO (0.5%) was the solvent control (SC) and the known inhibitor diclofenac (100 μM) was the positive control (PC). Data were fit to either the Michalis-Menten equation for uptake or the Hill equation for inhibition using the solvent control to define the top and the positive control inhibitor to define the bottom. Symbols represent the mean±SEM, n=3.
(§3) Human OAT1 (SLC22A6) and OAT3 (SLC22A8) overexpressing HEK-293 cells and control cells without transfected transporter (Corning® TransportoCells™) are plated to 24-well plates and cellular uptake of 10 to 100 μg/mL of a Compound of the Disclosure is measured in the absence and presence of transporter inhibitors. Uptake of a Compound of the Disclosure into control cells is measured only without chemical inhibitors. […] Cells are grown in DMEM (Gibco 4196, high glucose, without sodium pyruvate) supplemented with MEM non-essential amino acids and 10% fetal bovine serum. Cells are re-fed with fresh medium after attachment (4-6 hours post-seeding). Cell are plated at a density of 4×10^5/well in 24-well plates coated with poly-D-lysine. Transporter assays are conducted in 400 μL of HBSS supplemented with 10 mM Hepes, pH 7.4 […]
Enzyme kinetic data for uptake and metabolism of a Compound of the Disclosure is analysed by fitting the Michaelis-Menten equation to the data. […]

[2] = target: T1, monocarboxylate transporter (MCT1); conditions: read-out: Km, uptake by MCT1; uptake 1 min, room temperature
Description: as §1
Enzyme kinetic data for uptake and metabolism of a Compound of the Disclosure is analysed by fitting the Michaelis-Menten equation to the data. V0=Vmax[S]/Km+[S], where V0 is initial velocity, [S] is substrate concentration, Vmax is maximum velocity and Km is substrate concentration at half Vmax. All fitting is performed using GraphPad Prism 8.4 software (GraphPad Software Inc). No weighting scheme is applied.

OAT3 (SLC22A8) = target: T3, OAT3 (SLC22A8) (Homo sapiens, UniProt Q8TCC7); assay: Inhibition of OAT3 uptake of known substrate estrone-3-sulfate; assay type: cell-based; conditions: probe substrate estrone-3-sulfate 2 μM
T3 construct: host or cells: HEK-293
T3 sequence (Q8TCC7 1-542): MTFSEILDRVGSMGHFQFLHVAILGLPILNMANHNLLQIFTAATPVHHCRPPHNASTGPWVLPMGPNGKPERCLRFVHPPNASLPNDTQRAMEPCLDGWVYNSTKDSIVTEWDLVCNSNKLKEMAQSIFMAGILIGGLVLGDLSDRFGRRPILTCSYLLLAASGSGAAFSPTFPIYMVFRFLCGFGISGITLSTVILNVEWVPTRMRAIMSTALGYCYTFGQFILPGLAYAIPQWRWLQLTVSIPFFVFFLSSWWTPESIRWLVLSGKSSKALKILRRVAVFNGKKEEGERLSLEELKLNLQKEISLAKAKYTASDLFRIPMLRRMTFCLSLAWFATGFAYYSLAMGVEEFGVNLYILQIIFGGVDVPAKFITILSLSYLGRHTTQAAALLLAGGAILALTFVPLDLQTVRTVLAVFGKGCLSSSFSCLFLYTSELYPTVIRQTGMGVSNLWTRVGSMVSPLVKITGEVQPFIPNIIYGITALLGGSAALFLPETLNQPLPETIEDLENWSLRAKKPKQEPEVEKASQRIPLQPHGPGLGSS
Description: as §2, §3
The IC50 value for the test item is determined by fitting the Hill equation in the following form: […]

`CC(=O)N[C@@H](CC(C)C)C(=O)O` [N-acetyl-L-leucine] was tested, and the Ki ([1]; assuming competitive inhibition, read-out: affinity (Ki) for MCT1, Cheng-Prusoff equation) was 4.3 mM, the IC50 ([1]; probe substrate 2-thiophene glyoxylate 500 μM) was 15 mM and the “substrate of OAT1 (uptake)” value (OAT1 (SLC22A6)) was “substrate”. The Km [2] was 3000 µM and the IC50 (OAT3 (SLC22A8)) was 0.7 mM.
